Measurements taken from patent US7880002B2, “Substituted piperazinyl-pyrrolidine compounds useful as chemokine receptor antagonists” (Millennium Pharmaceuticals, Inc., priority 2004, dated 2011).

Target: T1, CCR1 (Homo sapiens, UniProt P32246)
T1 construct: a monocytic derived cell line that endogenously expresses CCR1; host or cells: THP-1 cells
T1 sequence (P32246 1-355): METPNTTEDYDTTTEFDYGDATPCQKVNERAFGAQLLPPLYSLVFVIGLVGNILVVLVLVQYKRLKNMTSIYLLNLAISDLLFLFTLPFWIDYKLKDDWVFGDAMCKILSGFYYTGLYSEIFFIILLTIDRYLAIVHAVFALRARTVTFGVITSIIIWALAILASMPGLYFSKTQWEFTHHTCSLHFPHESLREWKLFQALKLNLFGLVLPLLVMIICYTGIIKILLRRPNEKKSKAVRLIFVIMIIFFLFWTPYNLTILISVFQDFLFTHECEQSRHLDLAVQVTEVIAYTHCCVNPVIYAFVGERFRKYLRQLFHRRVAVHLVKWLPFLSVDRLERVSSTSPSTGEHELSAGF
Experiment: CCR1 inhibition (THP-1 FLIPR assay / THP-1 whole cell radioligand binding assay; the patent does not say which gave the values)
Type: cell-based
Conditions: threshold list, less than 100 nm; compounds of Table 1; read-out: inhibitory activity
Method: The primary screening assay is a FLIPR® (Fluorometric Imaging Plate Reader, available from Molecular Devices Corporation, Sunnyvale, Calif.) assay using THP-1 cells (ATCC, Catalog No. TIB 202), a monocytic derived cell line that endogenously expresses CCR1.
The cells were resuspended at 1×10^6 cells/ml in dye loading media (growth media (RPMI+10% FBS (Fetal Bovine serum)+5.5×10^−5M 2-mercaptoethanol)+10 mM HEPES (N-2-hydroxyethylpiperazine-N′-2-ethane-sulfonic acid)+2.5 mM probenecid+fluo-3 (1:250)). The cells were incubated for 1 hour at 37° C. and then washed in FLIPR wash buffer (100 mL 10× HBSS (Hanks Buffered Saline Solution) (w/Ca++/Mg++)+20 mL 1M HEPES+1 g BSA+10 mL 250 mM probenecid+water (to make 1 L)) and plated at 50,000 cells/well in black/clear 384 well plates. The plates were transferred to FLIPR where the ability of different concentrations of compounds to inhibit RANTES induced calcium flux was assessed. Inhibition of the CCR1 response was reflected by a decrease of the fluorescence signal relative to the positive controls (RANTES alone).
THP-1 Whole Cell Radioligand Binding Assay
The cells were washed with PBS (phosphate buffered saline) and resuspended in binding buffer (10 mM HEPES pH 7.2, 1× HBSS (w/Ca^2+, Mg^2+) 0.5% BSA, 0.02% Na-azide) at 4×10^6 cells/ml (for 200, 000 cells/well). Cells were incubated with 0.1 to 0.2 nM [^125I]-labeled MIP-1α with or without unlabeled competitor (MIP-1α) or various concentrations of compounds for 60 minutes at room temperature. The assay was terminated by vacuum filtration through glass fiber filters (GF/B, Packard) which were presoaked in 0.3% polyethyleneimine. The filters were washed with wash buffer (10 mM HEPES, pH 7.2, 1 mM CaCl2, 5 mM MgCl2 0.5M NaCl), dried and the amount of bound radioactivity was determined by scintillation counting.

**Q.** For `CNC(=O)Nc1ccc2nc(C(F)(F)F)nc(N3C[C@H](O)[C@@H](N4CCN(C(=O)c5ccc(Cl)cc5)CC4)C3)c2c1` (stereo in doubt) [Example 196, N-[4-{3-[4-(4-chlorobenzoyl)piperazin-1-yl]-4-hydroxypyrrolidin-1-yl}-2-(trifluoromethyl)quinazolin-6-yl]-N′-methylurea], which IC50 is on record?
**A.** < 100 nM

**Q.** How did the IC50 turn out when `CNC(=O)c1ccc2nc(C(F)(F)F)nc(N3C[C@@H](O)[C@H](N4CCN(C(=O)c5ccc(Cl)cc5)CC4)C3)c2c1` (stereo in doubt) [Example 198, 4-{3-[4-(4-chlorobenzoyl)piperazin-1-yl]-4-hydroxypyrrolidin-1-yl}-N-methyl-2-(trifluoromethyl)quinazoline-6-carboxamide] was run?
**A.** < 100 nM

**Q.** `CC(C)(O)c1ccc2nc(C(F)(F)F)nc(N3C[C@@H](O)[C@H](N4CCN(C(=O)c5ccc(Cl)cc5)CC4)C3)c2c1` (stereo in doubt) [Example 199, 4-[4-(4-chlorobenzoyl)piperazin-1-yl]-1-[6-(1-hydroxy-1-methylethyl)-2-(trifluoromethyl)quinazolin-4-yl]pyrrolidin-3-ol] was tested. Which IC50 did it give?
**A.** < 100 nM

**Q.** For `O=C(c1ccc(Cl)cc1)N1CCN([C@H]2CN(c3nc(C(F)(F)F)nc4cc(Cl)ccc34)C[C@@H]2O)CC1` (stereo in doubt) [Example 201, 4-[4-(4-chlorobenzoyl)piperazin-1-yl]-1-[7-chloro-2-(trifluoromethyl)quinazolin-4-yl]pyrrolidin-3-ol], which IC50 is on record?
**A.** < 100 nM

**Q.** Which IC50 does the source give for `O=C(c1ccc(Cl)cc1)N1CCN([C@@H]2CN(c3nc(C(F)(F)F)nc4ccc(N5CCNC5=O)cc34)C[C@H]2O)CC1` (stereo in doubt) [Example 202, 1-[4-{3-[4-(4-chlorobenzoyl)piperazin-1-yl]-4-hydroxypyrrolidin-1-yl}-2-(trifluoromethyl)quinazolin-6-yl]imidazolidin-2-one] here?
**A.** < 100 nM

**Q.** How did the IC50 turn out when `N#Cc1ccc2nc(C(F)(F)F)nc(N3C[C@@H](O)[C@H](N4CCN(C(=O)c5ccc(Cl)cc5)CC4)C3)c2c1` (stereo in doubt) [Example 203, 4-{3-[4-(4-chlorobenzoyl)piperazin-1-yl]-4-hydroxypyrrolidin-1-yl}-2-(trifluoromethyl)quinazoline-6-carbonitrile] was run?
**A.** < 100 nM

**Q.** Which IC50 does the source give for `O=C(c1ccc(Cl)cc1)N1CCN([C@@H]2CN(c3nc(C(F)(F)F)nc4ccc(-c5nn[nH]n5)cc34)C[C@H]2O)CC1` (stereo in doubt) [Example 204, 4-[4-(4-chlorobenzoyl)piperazin-1-yl]-1-[6-(2H-tetrazol-5-yl)-2-(trifluoromethyl)quinazolin-4-yl]pyrrolidin-3-ol] here?
**A.** < 100 nM

**Q.** How did the IC50 turn out when `O=C(c1ccc(Cl)cc1)N1CCN([C@@H]2CN(c3ccnc4cc(C(F)(F)F)ccc34)C[C@H]2O)CC1` [Example 12, 4-[4-(4-chlorobenzoyl)piperazin-1-yl]-1-[7-(trifluoromethyl)quinolin-4-yl]pyrrolidin-3-ol] was run?
**A.** < 100 nM

**Q.** For `O=C(c1ccc(Cl)cc1)N1CCN([C@@H]2CN(c3nccc4ccccc34)C[C@H]2O)CC1` [Example 21, 4-[4-(4-chlorobenzoyl)piperazin-1-yl]-1-isoquinolin-1-ylpyrrolidin-3-ol], which IC50 is on record?
**A.** < 100 nM

**Q.** Which IC50 does the source give for `O[C@@H]1CN(c2ccnc3cc(Cl)ccc23)C[C@H]1N1CCN(Cc2ccc(Cl)cc2)CC1` [Example 61, (3R,4R)-4-[4-(4-chlorobenzyl)piperazin-1-yl]-1-(7-chloroquinolin-4-yl)pyrrolidin-3-ol] here?
**A.** < 100 nM

**Q.** `O=C(c1ccc(Cl)cc1)N1CCN([C@H]2CN(c3nccc(C(F)(F)F)n3)C[C@@H]2O)CC1` [Example 68, (3S,4S)-4-[4-(4-chlorobenzoyl)piperazin-1-yl]-1-[4-(trifluoromethyl)pyrimidin-2-yl]pyrrolidin-3-ol] was tested. Which IC50 did it give?
**A.** < 100 nM

**Q.** Which IC50 does the source give for `O=C(c1ccc(Cl)cc1)N1CCN([C@H]2CN(c3cccc(C(F)(F)F)n3)C[C@@H]2O)CC1` [Example 79] here?
**A.** < 100 nM

**Q.** With `O=C(c1ccc(Cl)cc1)N1CCN([C@@H]2CN(c3nc(-c4ccccc4)nc4ccccc34)C[C@H]2O)CC1` [Example 101, 4-[4-(4-chlorobenzoyl)piperazin-1-yl]-1-(2-phenylquinazolin-4-yl)pyrrolidin-3-ol] as the molecule, how does the IC50 read?
**A.** < 100 nM

**Q.** How did the IC50 turn out when `O=C(c1ccc(Cl)cc1)N1CCN([C@H]2CN(c3ncnc4cc(Cl)ccc34)C[C@@H]2O)CC1` [Example 105, (3S,4S)-4-[4-(4-chlorobenzoyl)piperazin-1-yl]-1-(7-chloroquinazolin-4-yl)pyrrolidin-3-ol] was run?
**A.** < 100 nM

**Q.** `O[C@@H]1CN(c2nc(C(F)(F)F)cc(C(F)(F)F)n2)C[C@H]1N1CCN(Cc2ccc(Cl)cc2)CC1` [Example 110, 1-[4,6-bis(trifluoromethyl)pyrimidin-2-yl]-4-[4-(4-chlorobenzyl)piperazin-1-yl]pyrrolidin3-ol] was tested. Which IC50 did it give?
**A.** < 100 nM

**Q.** For `CC(C)(C)c1cc(C(F)(F)F)nc(N2CC(O)C(N3CCN(C(=O)c4ccc(Cl)cc4)CC3)C2)n1` (centres unmarked) [Example 129, 1-[4-tert-butyl-6-(trifluoromethyl)pyrimidin-2-yl]-4-[4-(4-chlorobenzoyl)piperazin-1-yl]pyrrolidin-3-ol], which IC50 is on record?
**A.** < 100 nM

**Q.** For `O[C@@H]1CN(c2ncnc3cc(Cl)ccc23)C[C@H]1N1CCN(Cc2ccc(Cl)cc2)CC1` [Example 141, (3R,4R)-4-[4-(4-chlorobenzyl)piperazin-1-yl]-1-(7-chloroquinazolin-4-yl)pyrrolidin-3-ol], which IC50 is on record?
**A.** < 100 nM

**Q.** For `Cc1cc(C(F)(F)F)nc(N2C[C@H](O)[C@@H](N3CCN(C(=O)c4ccc(Cl)cc4)CC3)C2)n1` [Example 150, (3S,4S)-4-[4-(4-chlorobenzoyl)piperazin-1-yl]-1-[4-methyl-6-(trifluoromethyl)pyrimidin-2-yl]pyrrolidin-3-ol], which IC50 is on record?
**A.** < 100 nM

**Q.** `Cc1nc(C(F)(F)F)nc(N2C[C@H](O)[C@@H](N3CCN(C(=O)c4ccc(Cl)cc4)CC3)C2)c1C` [Example 157, (3S,4S)-4-[4-(4-chlorobenzoyl)piperazin-1-yl]-1-[5,6-dimethyl-2-(trifluoromethyl)pyrimidin-4-yl]pyrrolidin-3-ol] was tested. Which IC50 did it give?
**A.** < 100 nM

**Q.** Which IC50 does the source give for `NC(=O)c1ccc2nc(C(F)(F)F)nc(N3C[C@@H](O)[C@H](N4CCN(C(=O)c5ccc(Cl)cc5)CC4)C3)c2c1` [Example 189, 4-{(3R,4R)-3-[4-(4-chlorobenzoyl)piperazin-1-yl]-4-hydroxypyrrolidin-1-yl}-2-(trifluoromethyl)quinazoline-6-carboxamide] here?
**A.** < 100 nM
